US12606528B2, “Methods and materials for inhibiting NF-kB activity” (University of Pittsburgh - Of the Commonwealth System of …, priority 2019, dated 2026)
Read-outs that look alike come from different tables or passages of the source.

Assays:
NF-κB = NF-κB assay: THP1-NF-κB-LUC cells, LPS-stimulated secreted luciferase; type: cell-based; conditions: THP1-NF-κB-LUC cells, read-out: IC50 (NF-κB assay)
Outline: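 THP1-NF-κB-LUC cells (25k/well) were pretreated with compounds for 2 h, then stimulated with LPS (10 ng/mL) for 18 h. Secreted luciferase was measured and normalized to vehicle, and IC50 was fitted from the concentration series.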

TNF release = test: TNF assay: TNF release from LPS-stimulated human PBMCs (TNF ELISA); type: cell-based; conditions: PBMC, read-out: IC50 (TNF assay)
Outline: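 TNF ELISA on supernatants read-out; cells were 10k human PBMCs/well given LPS at 10 ng/mL for 18 h after a 2 h compound pre-incubation across a concentration series, with IC50 derived for suppression of TNF secretion.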

[1] = compounds 2 hours before LPS (10 ng/mL) for 18 hours, secreted luciferase
[2] = human PBMCs, compounds 2 hours before LPS (10 ng/ml) for 18 hours, supernatant TNF ELISA
[3] = LPS-stimulated human PBMCs, TNF ELISA

Compound | IC50 (NF-κB; [1]) [µM] | IC50 (TNF release; [2]) [µM] | IC50 (NF-κB; LPS-stimulated) [µM] | IC50 (TNF release; [3]) [µM]
CN(C)c1cccc2cc(S(=O)(=O)c3ccccc3)cnc12 [BC19326] | > 10 | 1 to 10 | – | –
O=S(=O)(c1cccc(F)c1)c1nc(-c2ccccc2)oc1[S+]([O-])C1CCCCC1 (centres unmarked) [BC19327] | – | – | 1 to 10 | 1 to 10
O=S(=O)(c1cccc(F)c1)c1nc(-c2ccccc2)oc1S(=O)(=O)C1CCCCC1 [BC19328] | – | – | < 0.1 | 0.1 to 1
CS(=O)(=O)c1oc(-c2ccccc2)nc1S(=O)(=O)c1ccc(Cl)cc1 [BC19329] | – | – | < 0.1 | < 0.1
O=S(=O)(CC1CC1)c1oc(-c2ccccc2)nc1S(=O)(=O)c1ccc(Cl)cc1 [BC19330] | – | – | 0.1 to 1 | 0.1 to 1
COCCS(=O)(=O)c1oc(-c2ccccc2)nc1S(=O)(=O)c1ccc(Cl)cc1 [BC19331] | – | – | < 0.1 | < 0.1
CCC[S+]([O-])c1oc(-c2ccc(F)cc2)nc1S(=O)(=O)c1ccc(Cl)cc1 (centres unmarked) [BC19332] | – | – | 0.1 to 1 | < 0.1
COCCS(=O)(=O)c1oc(-c2ccc(F)cc2)nc1S(=O)(=O)c1ccc(Cl)cc1 [BC19333] | – | – | < 0.1 | < 0.1
CC(C)S(=O)(=O)c1sc(-c2ccccc2)nc1S(=O)(=O)c1ccc(F)c(F)c1 [BC19334] | – | – | > 10 | 1 to 10
Cc1ccc(Cl)cc1NC(=O)CS(=O)(=O)c1[nH]c(-c2ccccc2)nc1S(=O)(=O)c1ccccc1 [BC19335] | – | – | > 10 | > 10
COc1cccc(-c2nc(S(=O)(=O)c3ccc(Cl)cc3)c(S(=O)(=O)C(C)C)[nH]2)c1 [BC19336] | – | – | > 10 | > 10
COCC[S+]([O-])c1[nH]c(-c2cccc(OC)c2)nc1S(=O)(=O)c1ccc(Cl)cc1 (centres unmarked) [BC19337] | – | – | > 10 | > 10
C[S+]([O-])c1[nH]nc(N)c1S(=O)(=O)c1ccccc1 (centres unmarked) [BC19338] | – | – | > 10 | > 10
CS(=O)(=O)c1[nH]nc(N)c1S(=O)(=O)c1ccccc1 [BC19339] | – | – | > 10 | > 10
Cc1nc2c(S(=O)(=O)c3ccccc3)c([S+](C)[O-])nn2c(C)c1C (centres unmarked) [BC19340] | – | – | > 10 | > 10
Cc1cc(O)n2nc([S+](C)[O-])c(S(=O)(=O)c3ccccc3)c2n1 (centres unmarked) [BC19341] | – | – | > 10 | > 10
C[S+]([O-])c1oc(-c2cccc(F)c2)nc1S(=O)(=O)c1ccc(Cl)cc1 (centres unmarked) [BC19342] | – | – | < 0.1 | < 0.1
CS(=O)(=O)c1oc(-c2cccc(F)c2)nc1S(=O)(=O)c1ccc(Cl)cc1 [BC19343] | – | – | 1 to 10 | < 0.1
CCC[S+]([O-])c1oc(-c2cccc(F)c2)nc1S(=O)(=O)c1ccc(Cl)cc1 (centres unmarked) [BC19344] | – | – | 0.1 to 1 | 0.1 to 1

Compound | IC50 (NF-κB; [1]) [µM] | IC50 (TNF release; [2]) [µM] | IC50 (NF-κB; LPS-stimulated) [µM] | IC50 (TNF release; [3]) [µM]
CCCS(=O)(=O)c1oc(-c2cccc(F)c2)nc1S(=O)(=O)c1ccc(Cl)cc1 [BC19345] | – | – | 0.1 to 1 | 0.1 to 1
CC(C)[S+]([O-])c1oc(-c2cccc(F)c2)nc1S(=O)(=O)c1ccc(Cl)cc1 (centres unmarked) [BC19346] | – | – | < 0.1 | < 0.1
CC(C)C[S+]([O-])c1oc(-c2cccc(F)c2)nc1S(=O)(=O)c1ccc(Cl)cc1 (centres unmarked) [BC19347] | – | – | < 0.1 | < 0.1
CC(C)CS(=O)(=O)c1oc(-c2cccc(F)c2)nc1S(=O)(=O)c1ccc(Cl)cc1 [BC19348] | – | – | < 0.1 | 0.1 to 1
O=S(=O)(c1ccc(Cl)cc1)c1nc(-c2cccc(F)c2)oc1[S+]([O-])CC1CC1 (centres unmarked) [BC19349] | – | – | 0.1 to 1 | < 0.1
O=S(=O)(CC1CC1)c1oc(-c2cccc(F)c2)nc1S(=O)(=O)c1ccc(Cl)cc1 [BC19350] | – | – | 1 to 10 | 1 to 10
COCC[S+]([O-])c1oc(-c2cccc(F)c2)nc1S(=O)(=O)c1ccc(Cl)cc1 (centres unmarked) [BC19351] | – | – | 0.1 to 1 | < 0.1
COCCS(=O)(=O)c1oc(-c2cccc(F)c2)nc1S(=O)(=O)c1ccc(Cl)cc1 [BC19352] | – | – | 0.1 to 1 | < 0.1
O=S(=O)(c1ccc(Cl)cc1)c1nc(-c2cccc(F)c2)oc1[S+]([O-])C1CCCCC1 (centres unmarked) [BC19353] | – | – | 0.1 to 1 | 0.1 to 1
CC1Oc2cc(S(=O)(=O)Nc3ccc(OC(F)(F)F)cc3)c(Cl)cc2NC1=O (centres unmarked) [BC19354] | < 0.1 | > 10 | – | –
CCOc1ccc(NS(=O)(=O)c2cc(Cl)cc3c2OC(C)C(=O)N3)cc1 (centres unmarked) [BC19355] | < 0.1 | > 10 | – | –
CC1Oc2cc(S(=O)(=O)NCc3ccc(F)cc3F)c(Br)cc2NC1=O (centres unmarked) [BC19356] | 1 to 10 | > 10 | – | –
CC1Oc2cc(S(=O)(=O)NCc3ccc(OC(F)(F)F)cc3)c(Br)cc2NC1=O (centres unmarked) [BC19357] | > 10 | > 10 | – | –
CC1Oc2cc(S(=O)(=O)NCc3ccc(C(F)(F)F)cc3)c(Br)cc2NC1=O (centres unmarked) [BC19358] | > 10 | > 10 | – | –
CC1Oc2cc(S(=O)(=O)NCCc3ccc(OC(F)(F)F)cc3)c(Br)cc2NC1=O (centres unmarked) [BC19359] | > 10 | > 10 | – | –
CC1Oc2cc(S(=O)(=O)NC3CCC(O)CC3)c(Br)cc2NC1=O (centres unmarked) [BC19360] | > 10 | > 10 | – | –
CC1Oc2cc(S(=O)(=O)NC3CCC(C(C)(C)C)CC3)c(Br)cc2NC1=O (centres unmarked) [BC19361] | > 10 | > 10 | – | –
CC1Oc2c(cc(Br)cc2S(=O)(=O)NCc2ccc(F)cc2F)NC1=O (centres unmarked) [BC19362] | 0.1 to 1 | > 10 | – | –
CC1Oc2c(cc(Br)cc2S(=O)(=O)NCc2ccc(OC(F)(F)F)cc2)NC1=O (centres unmarked) [BC19363] | < 0.1 | > 10 | – | –

Next, values leading:

IC50 (NF-κB; [1]) [µM] | IC50 (TNF release; [2]) [µM] | IC50 (NF-κB; LPS-stimulated) [µM] | IC50 (TNF release; [3]) [µM] | Compound
> 10 | > 10 | – | – | CC1Oc2c(cc(Br)cc2S(=O)(=O)NCCc2ccc(OC(F)(F)F)cc2)NC1=O (centres unmarked) [BC19364]
1 to 10 | > 10 | – | – | CC1Oc2c(cc(Br)cc2S(=O)(=O)NCc2ccc(C(F)(F)F)cc2)NC1=O (centres unmarked) [BC19365]
> 10 | > 10 | – | – | CC1Oc2c(cc(Br)cc2S(=O)(=O)NC2CCC(O)CC2)NC1=O (centres unmarked) [BC19366]
> 10 | > 10 | – | – | CC1Oc2c(cc(Br)cc2S(=O)(=O)NC2CCC(C(C)(C)C)CC2)NC1=O (centres unmarked) [BC19367]
> 10 | > 10 | – | – | CCC1Oc2cc(S(=O)(=O)NCc3ccc(F)cc3F)c(Br)cc2NC1=O (centres unmarked) [BC19368]
> 10 | > 10 | – | – | CCC1Oc2cc(S(=O)(=O)NCc3ccc(OC(F)(F)F)cc3)c(Br)cc2NC1=O (centres unmarked) [BC19369]
> 10 | > 10 | – | – | CCC1Oc2cc(S(=O)(=O)NCc3ccc(C(F)(F)F)cc3)c(Br)cc2NC1=O (centres unmarked) [BC19370]
1 to 10 | > 10 | – | – | CCC1Oc2cc(S(=O)(=O)Nc3ccc(C(F)(F)F)cc3Cl)c(Br)cc2NC1=O (centres unmarked) [BC19371]
> 10 | > 10 | – | – | CCC1Oc2cc(S(=O)(=O)NC3CCC(O)CC3)c(Br)cc2NC1=O (centres unmarked) [BC19372]
> 10 | > 10 | – | – | CCC1Oc2cc(S(=O)(=O)NCCc3ccc(OC(F)(F)F)cc3)c(Br)cc2NC1=O (centres unmarked) [BC19373]
< 0.1 | 1 to 10 | – | – | CCC1Oc2c(cc(Br)cc2S(=O)(=O)NCc2ccc(F)cc2F)NC1=O (centres unmarked) [BC19374]
< 0.1 | > 10 | – | – | CCC1Oc2c(cc(Br)cc2S(=O)(=O)NCc2ccc(OC(F)(F)F)cc2)NC1=O (centres unmarked) [BC19375]
1 to 10 | > 10 | – | – | CCC1Oc2c(cc(Br)cc2S(=O)(=O)NCCc2ccc(OC(F)(F)F)cc2)NC1=O (centres unmarked) [BC19376]
< 0.1 | > 10 | – | – | CCC1Oc2c(cc(Br)cc2S(=O)(=O)NCc2ccc(C(F)(F)F)cc2)NC1=O (centres unmarked) [BC19377]
> 10 | > 10 | – | – | CCC1Oc2c(cc(Br)cc2S(=O)(=O)NC2CCC(O)CC2)NC1=O (centres unmarked) [BC19378]
> 10 | > 10 | – | – | CCC1Oc2c(cc(Br)cc2S(=O)(=O)NC2CCC(C(C)(C)C)CC2)NC1=O (centres unmarked) [BC19379]
> 10 | > 10 | – | – | CC(C)(C)C1CCC(NS(=O)(=O)c2cc(Br)cc3c2OCC(=O)N3)CC1 (centres unmarked) [BC19380]
> 10 | > 10 | – | – | O=C1COc2c(cc(Br)cc2S(=O)(=O)NC2CCC(O)CC2)N1 (centres unmarked) [BC19381]
> 10 | > 10 | – | – | O=C1COc2c(cc(Br)cc2S(=O)(=O)NCc2ccc(C(F)(F)F)cc2)N1 [BC19382]
> 10 | > 10 | – | – | O=C1COc2c(cc(Br)cc2S(=O)(=O)NCCc2ccc(OC(F)(F)F)cc2)N1 [BC19383]
< 0.1 | > 10 | – | – | O=C1COc2c(cc(Br)cc2S(=O)(=O)Nc2ccc(C(F)(F)F)cc2Cl)N1 [BC19384]
> 10 | > 10 | – | – | O=C1COc2c(cc(Br)cc2S(=O)(=O)NCc2ccc(OC(F)(F)F)cc2)N1 [BC19385]
> 10 | > 10 | – | – | O=C1COc2c(cc(Br)cc2S(=O)(=O)NCc2ccc(F)cc2F)N1 [BC19386]
> 10 | > 10 | – | – | O=C1COc2cc(S(=O)(=O)NCCc3ccc(OC(F)(F)F)cc3)c(Br)cc2N1 [BC19387]
> 10 | > 10 | – | – | CC(C)(C)C1CCC(NS(=O)(=O)c2cc3c(cc2Br)NC(=O)CO3)CC1 (centres unmarked) [BC19388]
> 10 | > 10 | – | – | O=C1COc2cc(S(=O)(=O)NC3CCC(O)CC3)c(Br)cc2N1 (centres unmarked) [BC19389]
1 to 10 | > 10 | – | – | O=C1COc2cc(S(=O)(=O)Nc3ccc(C(F)(F)F)cc3Cl)c(Br)cc2N1 [BC19390]
> 10 | > 10 | – | – | O=C1COc2cc(S(=O)(=O)NCc3ccc(C(F)(F)F)cc3)c(Br)cc2N1 [BC19391]
> 10 | > 10 | – | – | O=C1COc2cc(S(=O)(=O)NCc3ccc(OC(F)(F)F)cc3)c(Br)cc2N1 [BC19392]
